Assays:
[1] = tested on: Severe Post-Traumatic Stress Reaction
Method: Finally, this patient was taken off of fluoxetine 20 mg when sibutramine treatment was initiated.

Gulf War Syndrome (GWS) = experiment: Case history 19; type: in vivo, human; conditions: 10 mg. b.i.d. of sibutramine; veteran
[2] = tested on: Sexual Function, ADD, and Rage Outbursts; experiment: Case history 3, Sibutramine Patient No. 100; type: in vivo, human; conditions: sibutramine 10 mg twice a day
[3] = tested on: Reflex Sympathetic Dystrophy Syndrome (RSDS); Complex Regional Pain Syndrome (CRPS); experiment: Case history 27; type: in vivo, human
[4] = tested on: Severe Atypical Psychosis; experiment: Case history 1, Sibutramine Patient No. 97; type: in vivo, human; conditions: sibutramine 10 mg orally three times a day, added to carbamazepine, quetiapine, valproic acid; person
[5] = tested on: frontal lobe executive function, ADHD, and hyposexuality
[6] = tested on: Tourette's Tics, Asocial Behavior, and Relief of Hyposexuality; conditions: sibutramine 5 mg three times a day
Retinitis Pigmentosa = experiment: Case history 13; type: in vivo, human
Source text: person one presented with a 40 year history of gradual loss of vision due to RP. For the past 10 years they had been almost completely blind except for well-lit large shapes visible to their right eye. They have been prone to falls with head injury and had developed a focal seizure disorder which had been also associated with “visions”, stammering, and confusion. Multiple treatments had been tried unsuccessfully by other physicians, and they were then referred to me.
One problem was that the effects faded after 4-6 hours and required multiple dosing. […] sleep was aided as well because of the relief from the frightening visual apparitions. The relief from stammering was also unexpected.

[7] = tested on: Sexual Obsessive-Compulsive Behavior, ADD and Executive Function; experiment: Case history 6, Sibutramine Patient No. 77; type: in vivo, human
[8] = tested on: Dementia, Alzheimer's-Type; experiment: Case history 24; type: in vivo, human
Method: 24. The Symptoms Due to Dementia, Alzheimer's-Type
person one was diagnosed with Dementia. The symptoms they suffered from included memory loss and severe confusion. They tried a variety of treatments to relieve their symptoms including choldine esterase inhibitors, antidepressants, Ritilin, and aterol. […] They were then tested off of sibutramine. […] They began to suffer from a lowered I.Q. and their memory deteriorated.

[9] = tested on: Violence and Self-Laceration; experiment: Case history 2, Sibutramine Patient No. 3; type: in vivo, human
Method: 2. Violence and Self-Laceration (Problem No. 1) Sibutramine Patient No. 3
They were started on sibutramine 10 mg orally every morning for their violence, self-abuse and obesity.

[10] = tested on: Intracerebral Porencephalic Cyst With Oscillopsia; experiment: Case history 14, Sibutramine Patient No. 111; type: in vivo, human
Source text: 14. Intracerebral Porencephalic Cyst With Oscillopsia (Problem No. 5) Sibutramine Patient No. 111
A person suffered a severe head injury in 1976 with a fractured skull, coma, and an intracerebral (porencephalic) cyst caused by the traumatic blockage of their cerebral spinal fluid in their brain. This cyst was repaired surgically with a brain ventricular—jugular vein shunt. This had permitted them to work continuously with concomitant treatment with carbamazepine, valproic acid, and dextroamphetamine until early 1998 when they began to suffer severe attacks of bizarrely altered vision, dizziness, ataxia, and confusion. The attacks progressed to several times per week, lasting 4-24 hours in duration. […] There is no known treatment for these attacks and they were therefore unable to drive or work safely. They were placed on total disability. They were started on 10 mg of sibutramine as needed for these oscillopsia attacks. […] After 2 months at the 5 mg tid dosage, the patient again noted a recurrence of oscillopsia on a 2-3 times weekly basis.

[11] = tested on: Chronic Psychosis and Tardive Dyskinesia; experiment: Case history 28; type: in vivo, human
Method: 28. Chronic Psychosis and Tardive Dyskinesia
They were committed to a Psychiatric Hospital multiple times and was treated with multiple neuroleptic medication from which they have developed Tardive Dyskinesia. They were administered 15 mg sibutramine a day which had immediate effects, in less then one hour the improvement was noticed by them and others. […] They continue to take sibutramine along with 15 mg of Zyprexa daily.

Cerebral Palsy = experiment: Case history 26; type: in vivo, human; conditions: sibutramine 15 mg once a day; person two
Source text: 26. The Symptoms Due to Cerebral Palsy
person two had suffered from Cerebral Palsy since birth. Their whole life they had little control of their right arm and hand, and they could not keep their arm straight and down by their side except for short periods of time and using the utmost concentration to do so. Most often they kept their arm in an upright position with their hand near or above their shoulder and their elbow bent. They had no practical use from the arm other than to hold something against their chest. Their hand was also rigid and kept in a loose fist configuration. Fine motor movements of the fingers were impossible for them. […] They had gained control of the right arm and their hand. They are able to hold their hand down by their side for longer periods of time and less concentration required to do so. For the first time in their life they were able to make controlled movements and raise their arm and hand above their head.

Sexual Function and ADD = experiment: Case history 4, Sibutramine Patient No. 109; type: in vivo, human

For `CC(C)CC(N(C)C)C1(c2ccc(Cl)cc2)CCC1.Cl` (centres unmarked) [sibutramine, N,N-dimethyl-1-[1-(4-chlorophenyl)cyclobutyl]-3-methylbutylamine hydrochloride], which depression ([1]; human, in vivo) is on record?
Its depression is “became severely depressed despite the relief from PTSD”.

What about the “PTSD symptoms and sedation at lower dosage” value ([1]; less than 1 mg once a day) of the same compound?
The value was “provided relief again from their PTSD symptoms but without the sedation”.

And the side effects ([1]; one-half of the smallest capsule (5 mg), deficiency in P-450 cytochrome system enzymes)?
The side effects was “produced drowsiness, sugar craving, and weight gain”.

And the “PTSD reaction to thunder” value ([1]; sibutramine 10 mg in the morning, person)?
The value was “completely oblivious of their former psychotic fear of thunder”.

What about the “symptoms after sibutramine was stopped” value ([1]; stopped after one and a half months) of the same compound?
The value was “rapid return of the fear of thunder, sound and light sensitivity, exaggerated startle reflex, headaches, and nightmares of life and death situations”.

And the “pain, cognitive problems, confusion” value (Gulf War Syndrome (GWS))?
Its value is “rapidly repaired their pain, cognitive problems, and confusion”.

And the “concentration and anger outbursts” value [2]?
The value was “able to concentrate better and had fewer and less severe anger outbursts”.

And the “sexual drive and interest” value ([2]; person)?
The value was “an increase in their sexual drive and interest”.

And the “time to pain relief” value ([3]; 15 mg capsule of sibutramine, child)?
Its value is ≤ 45 min.

What about the toe and function ([3]; 15 mg once a day, within 2 weeks) of the same compound?
The toe and function was “their toe became normal, and normal function was regained”.

What about the “pain and symptoms after restart” value ([3]; back on 15 mg once a day) of the same compound?
The value was “their pain level decreased significantly within one hour and their symptoms disappeared”.

What about the foot pain ([3]; first 15 mg capsule) of the same compound?
Its foot pain is “dramatically better, completely relieved of pain”.

What about the symptoms off sibutramine ([3]; taken off for one day) of the same compound?
The symptoms off sibutramine was “all the previous symptoms reappeared”.

What about the “hallucinations, confusion, paranoia, and anxiety” value [4] of the same compound?
Its value is “marked decrease in hallucinations, confusion, paranoia, and anxiety”.

What about the “sexual drive after radical prostatectomy” value ([5]; sibutramine) of the same compound?
The value was “this problem of sexual drive was repaired”.

And the “efficacy after dose decrease” value ([5]; sibutramine 5 mg bid, pemoline and methylphenidate discontinued)?
Its value is “without a loss of efficacy”.

What about the side effects ([5]; sibutramine 10 mg. bid) of the same compound?
Its side effects is “dry mouth and some insomnia”.

And the “concentration and ability to plan” value ([5]; sibutramine 10 mg. bid p.o. Person)?
The value was “immediate repair of concentration, and particularly their ability to plan and carry out these plans effectively”.

And the ADHD [6]?
The ADHD was “his ADHD improved”.

And the “communication and social skills” value [6]?
Its value is “their communication and social skills improved”.

What about the “motor and vocal tics, obsessive compulsive component” value ([6]; child) of the same compound?
The value was “the motor and vocal tics associated with Tourette's Disease were decreased as well as the obsessive compulsive component”.

What about the “time after which effects faded” value (Retinitis Pigmentosa; sibutramine 5 mgs.) of the same compound?
Its value is 4 to 6 h.

What about the “visual apparitions (“visions”)” value (Retinitis Pigmentosa; sibutramine 5 mgs. t.i.d.) of the same compound?
The value was “lost the “visions” which had upset them so”.

What about the “organization, alertness, stammering, vision” value (Retinitis Pigmentosa; sibutramine 5 mgs. t.i.d. Person one) of the same compound?
Its value is “better organization and alertness, decreased stammering, but also better vision by visual testing”.

And the “concentration, organization, sexual obsessive-compulsive problems” value ([7]; sibutramine 10 mg every morning, then 5 mg three times a day by mouth, person)?
Its value is “could concentrate, organize, and no longer had the sexual obsessive-compulsive problems”.

And the “duration of effects of each dose” value ([7]; sibutramine by mouth)?
Its value is “about five”.

What about the “memory loss and severe confusion” value ([8]; sibutramine 15 mg once a day, person one) of the same compound?
Its value is “their symptoms quickly dissipated”.

What about the symptoms off sibutramine ([8]; taken off sibutramine) of the same compound?
The symptoms off sibutramine was “their symptoms reappeared”.

What about the “energy, seizures, violence and self-abuse” value ([9]; sibutramine 10 mg orally every) of the same compound?
The value was “gained new energy, had fewer seizures, and was no longer violent or self-abusive”.

And the time to response ([9]; sibutramine 10 mg orally every morning)?
Its time to response is “less than a week”.

What about the “wear-off of effects after administration” value ([9]; single morning dose 10 mg) of the same compound?
The value was 5 to 6 h.

And the oscillopsia attacks ([10]; 10 mg of sibutramine as needed, person)?
Its oscillopsia attacks is “appeared to help”.

And the recurrence of oscillopsia ([10]; after 2 months at 5 mg tid)?
The recurrence of oscillopsia was 2-3 times weekly.

What about the “oscillopsia attacks in the next four weeks” value ([10]; sibutramine 5 mg three times daily) of the same compound?
The value was “only one such attack”.

What about the oscillopsia attacks ([10]; sibutramine 10 mg tid) of the same compound?
Its oscillopsia attacks is “absence of attacks”.

What about the emotion and paranoia ([11]; 15 mg sibutramine a day, with Zyprexa) of the same compound?
The emotion and paranoia was “emotional for the first time and diminishing their paranoia greatly”.

What about the “time to noticed improvement” value ([11]; 15 mg sibutramine a day, person) of the same compound?
The value was “one hour”.

And the “Tardive Dyskinesia” value ([11]; after the first week)?
Its value is “his Tardive Dyskinesia improved”.

What about the “symptoms due to Cerebral Palsy, control of right arm and hand” value (Cerebral Palsy) of the same compound?
Its value is “their symptoms due to Cerebral Palsy were relieved”.

And the “concentration and fatigue problems” value (Sexual Function and ADD; sibutramine 5 mg three times daily with continuing valproic acid)?
Its value is “no longer had the concentration and fatigue problems”.

What about the “sexual interest and ability” value (Sexual Function and ADD; sibutramine 5 mg three times daily, person) of the same compound?
Its value is “immediately noted a new-found interest and ability to engage in sex”.

From US6696495B2, “Treatment of disorders secondary to organic impairments” (Snowden Pharmaceuticals, LLC, priority 1998, dated 2004)
